Data on 3 molecules can be found in patent publication US9686984B2, “Macrocyclic picolinamides as fungicides” (DOW AGROSCIENCES LLC, priority 2014, dated 2017).

The structures appear in SMILES notation.

Holding throughout (assay type): in vivo
Holding throughout (conditions): 100 ppm, 1 Day Protectant

Assay [1] concerns Rhyncosporium secalis. As to the kind of experiment: Barley Scald (RHYNSE) disease control. The protocol: Technical grades of materials were dissolved in acetone, which were then mixed with nine volumes of water containing 110 ppm Triton X-100. The fungicide solutions were applied onto wheat seedlings using an automated booth sprayer to run-off. All sprayed plants were allowed to air dry prior to further handling. All fungicides were evaluated using the aforementioned method for their activity vs. all target diseases, unless stated otherwise. Wheat leaf blotch and brown rust activity were also evaluated using track spray applications, in which case the fungicides were formulated as EC formulations, containing 0.1% Trycol 5941 in the spray solutions. Wheat plants (variety Yuma) were grown from seed in a greenhouse in 50% mineral soil/50% soil-less Metro mix until the first leaf was fully emerged, with 7-10 seedlings per pot. These plants were inoculated with an aqueous spore suspension of Septoria tritici either prior to or after fungicide treatments. After inoculation the plants were kept in 100% relative humidity (one day in a dark dew chamber followed by two to three days in a lighted dew chamber at 20° C.) to permit spores to germinate and infect the leaf. The plants were then transferred to a greenhouse set at 20° C. for disease to develop. When disease symptoms were fully expressed on the 1st leaves of untreated plants, infection levels were assessed on a scale of 0 to 100 percent disease severity. Percent disease control was calculated using the ratio of disease severity on treated plants relative to untreated plants. Example K: Evaluation of Fungicidal Activity: Barley Scald (Rhyncosporium secalis; Bayer Code […]) Barley seedlings (variety Harrington) were propagated in soil-less Metro mix, with each pot having 8 to 12 plants, and used in the test when first leaf was fully emerged. Test plants were inoculated by an aqueous spore suspension of Rhyncosporium secalis 24 hr after fungicide treatments. After inoculation the plants were kept in a dew room at 20° C. with 100% relative humidity for 48 hr. […]

Assay [2] concerns Alternaria solani. As to the kind of experiment: Tomato Early Blight (ALTESO) disease control. The protocol: Technical grades of materials were dissolved in acetone, which were then mixed with nine volumes of water containing 110 ppm Triton X-100. The fungicide solutions were applied onto wheat seedlings using an automated booth sprayer to run-off. All sprayed plants were allowed to air dry prior to further handling. All fungicides were evaluated using the aforementioned method for their activity vs. all target diseases, unless stated otherwise. Wheat leaf blotch and brown rust activity were also evaluated using track spray applications, in which case the fungicides were formulated as EC formulations, containing 0.1% Trycol 5941 in the spray solutions. Wheat plants (variety Yuma) were grown from seed in a greenhouse in 50% mineral soil/50% soil-less Metro mix until the first leaf was fully emerged, with 7-10 seedlings per pot. These plants were inoculated with an aqueous spore suspension of Septoria tritici either prior to or after fungicide treatments. After inoculation the plants were kept in 100% relative humidity (one day in a dark dew chamber followed by two to three days in a lighted dew chamber at 20° C.) to permit spores to germinate and infect the leaf. The plants were then transferred to a greenhouse set at 20° C. for disease to develop. When disease symptoms were fully expressed on the 1st leaves of untreated plants, infection levels were assessed on a scale of 0 to 100 percent disease severity. Percent disease control was calculated using the ratio of disease severity on treated plants relative to untreated plants. Example M: Evaluation of Fungicidal Activity: Tomato Early Blight (Alternaria solani; Bayer Code […]) Tomato plants (variety Outdoor Girl) were propagated in soil-less Metro mix, with each pot having one plant, and used when 12 to 14 days old. Test plants were inoculated with an aqueous spore suspension of Alternaria solani 24 hr after fungicide treatments. […]

Assay [3] has as its system Erysiphe cichoracearum. Nature of the assay: Powdery Mildew of Cucumber (ERYSCI) disease control. The protocol: Technical grades of materials were dissolved in acetone, which were then mixed with nine volumes of water containing 110 ppm Triton X-100. The fungicide solutions were applied onto wheat seedlings using an automated booth sprayer to run-off. All sprayed plants were allowed to air dry prior to further handling. All fungicides were evaluated using the aforementioned method for their activity vs. all target diseases, unless stated otherwise. Wheat leaf blotch and brown rust activity were also evaluated using track spray applications, in which case the fungicides were formulated as EC formulations, containing 0.1% Trycol 5941 in the spray solutions. Wheat plants (variety Yuma) were grown from seed in a greenhouse in 50% mineral soil/50% soil-less Metro mix until the first leaf was fully emerged, with 7-10 seedlings per pot. These plants were inoculated with an aqueous spore suspension of Septoria tritici either prior to or after fungicide treatments. After inoculation the plants were kept in 100% relative humidity (one day in a dark dew chamber followed by two to three days in a lighted dew chamber at 20° C.) to permit spores to germinate and infect the leaf. The plants were then transferred to a greenhouse set at 20° C. for disease to develop. When disease symptoms were fully expressed on the 1st leaves of untreated plants, infection levels were assessed on a scale of 0 to 100 percent disease severity. Percent disease control was calculated using the ratio of disease severity on treated plants relative to untreated plants. Example F: Evaluation of Fungicidal Activity: Powdery Mildew of Cucumber (Erysiphe cichoracearum; Bayer Code […]) Cucumber seedlings (variety Bush Pickle) were grown in soil-less Metro mix, with one plant per pot, and used in the test when 12 to 14 days old. Plants were inoculated with a spore suspension 24 hr following fungicide treatments. After inoculation the plants remained in the greenhouse set at 20° C. until disease was fully expressed. […]

As for `CCCC[C@H]1OCC[C@H](NC(=O)c2nccc(OC)c2OC(C)=O)C(=O)O[C@@H](C)[C@@H]1Cc1ccccc1` [Compound 2], in assay [1], the “RHYNSE disease control, 1DP” value is “A (>70)”. Moreover, in assay [2], the “ALTESO disease control, 1DP” value is “B (≦70)”. The “ERYSCI disease control, 1DP” value in assay [3] was “B (≦70)”.
Take `COc1ccnc(C(=O)N[C@H]2CCO[C@H](Cc3ccccc3)[C@@H](Cc3ccccc3)[C@H](C)OC2=O)c1OC(C)=O` [Compound 3]: in assay [1], the “RHYNSE disease control, 1DP” value is recorded as “B (≦70)”. Moreover, the “ALTESO disease control, 1DP” value in assay [2] is “B (≦70)”. The “ERYSCI disease control, 1DP” value in assay [3] is reported as “B (≦70)”.
Regarding `CCC[C@H]1OCC[C@H](NC(=O)c2nccc(OC)c2OCOC(C)=O)C(=O)O[C@@H](C)[C@@H]1Cc1ccccc1` [Compound 17], in assay [1], the “RHYNSE disease control, 1DP” value was “B (≦70)”. Besides, the “ALTESO disease control, 1DP” value in assay [2] is on record as “B (≦70)”. Besides, the “ERYSCI disease control, 1DP” value in assay [3] was “B (≦70)”.
